The text below walks through data of ChEMBL document CHEMBL1201862, “PubChem BioAssay data set” (2004).

Molecules are shown by their SMILES.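 Protocol summary: plate cells (96-well), add compound at 5 concentrations, incubate 48 h, interpolate endpoints linearly. At the GI50, growth is halved.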 Calls of active or inactive are those of the source. No stated cut-off is given here; in the data, active = GI50 up to about 1.1 µM and inactive = higher.

Among the test systems are CAKI-1; CCRF-CEM; HT-29; KM-20L2; NCI-H23; NCI-H460; OVCAR-5; RXF 393; SF-268; SF-295; SK-MEL-28; SN12C; SNB-19; TK-10; UACC-257; UO-31; HOP-92; MDA-MB-231; OVCAR-4; PC-3.
Experiment in all cases: NCI anticancer screen, dose series, 48 h

Regarding `O=C(Cc1ccccc1)NN1C(=O)C(Cl)C1c1ccc(O)cc1` (stereo not drawn), the GI50 with CAKI-1, with CCRF-CEM, with HT-29, with KM-20L2, in the experiment with NCI-H23 and in the experiment on NCI-H460 was > 100 µM (inactive) in each case. Also, the GI50 in the experiment with OVCAR-5, in the experiment with RXF 393, in the experiment with SF-268, with SF-295, in the experiment on SK-MEL-28 and with SN12C was > 100 µM (inactive) each time. For the same compound, the GI50 with SNB-19 is > 100 µM (inactive); with TK-10, > 100 µM (inactive); with UACC-257 it was > 100 µM (inactive); in the experiment with UO-31, 64.7 µM (inactive).

With `CCOC(=O)C(C)(C)Oc1ccc(Cl)cc1` [CLOFIBRATE], the GI50 in the experiment with CAKI-1 was > 1000 µM (inactive); with CCRF-CEM it was 596 µM (inactive); in the experiment on HOP-92, 177 µM (inactive); with HT-29 it was 159 µM (inactive); with MDA-MB-231 it was > 1000 µM (inactive); in the experiment on NCI-H23, 303 µM (inactive). In addition, the GI50 was 632 µM (inactive) in the experiment with NCI-H460; 322 µM (inactive) in the experiment with OVCAR-4; 446 µM (inactive) with OVCAR-5; 359 µM (inactive) in the experiment with PC-3; 160 µM (inactive) in the experiment on RXF 393; 650 µM (inactive) in the experiment on SF-268. Besides, the GI50 was 319 µM (inactive) in the experiment on SF-295; 489 µM (inactive) in the experiment with SK-MEL-28; 320 µM (inactive) in the experiment on SN12C; > 1000 µM (inactive) with SNB-19; > 1000 µM (inactive) with TK-10; 177 µM (inactive) in the experiment on UACC-257. In addition, the GI50 with UO-31 was 726 µM (inactive).

Consider `CCOC(=O)C(C)(c1c(C)[nH]c2ccccc12)c1c(C)[nH]c2ccccc12`, for which the GI50 in the experiment on CAKI-1 is 14.3 µM (inactive); in the experiment on CCRF-CEM, 17.9 µM (inactive); with HT-29 it was 16.7 µM (inactive); in the experiment on KM-20L2, 16.4 µM (inactive); in the experiment with NCI-H23, 17.1 µM (inactive); in the experiment on NCI-H460 it was 17.6 µM (inactive). Moreover, the GI50 in the experiment on OVCAR-4 was 14.9 µM (inactive); with OVCAR-5, 19.6 µM (inactive); in the experiment with RXF 393, 12.9 µM (inactive); in the experiment on SF-295, 14 µM (inactive); in the experiment with SK-MEL-28 it was 15.3 µM (inactive); with TK-10 it was 18.7 µM (inactive). In addition, the GI50 with UACC-257 is 14.8 µM (inactive); in the experiment on UO-31, 12.5 µM (inactive).

As for `C[N+](C)=c1nc(N2CCc3ccccc3C2)ss1.[O-][Cl+3]([O-])([O-])[O-]`, the GI50 is > 100 µM (inactive) with CAKI-1; 82.8 µM (inactive) in the experiment with CCRF-CEM; > 100 µM (inactive) in the experiment on KM-20L2; > 100 µM (inactive) in the experiment on NCI-H460; > 100 µM (inactive) in the experiment on OVCAR-4; 77.4 µM (inactive) with RXF 393. Besides, the GI50 in the experiment with SF-268, with SK-MEL-28, with SN12C, with SNB-19, in the experiment on TK-10 and with UACC-257 was > 100 µM (inactive) in each case. In addition, the GI50 in the experiment on UO-31 is > 100 µM (inactive).

In the case of `COc1ccc(/C=C2\CCC(C)C3=C2NC(=S)NC3c2ccc(OC)c(OC)c2)cc1OC` (stereo not drawn), the GI50 in the experiment on CAKI-1 was 15.6 µM (inactive); in the experiment on CCRF-CEM, 8.95 µM (inactive); in the experiment with HOP-92, 36.1 µM (inactive); with HT-29, 26 µM (inactive); with MDA-MB-231, 18.2 µM (inactive); in the experiment on NCI-H23, > 10 µM (inactive). The GI50 was 41.8 µM (inactive) in the experiment on NCI-H460; 35.4 µM (inactive) in the experiment on OVCAR-4; > 31.6 µM (inactive) in the experiment on OVCAR-5; 10.7 µM (inactive) with PC-3; > 10 µM (inactive) with RXF 393; 25.5 µM (inactive) in the experiment on SF-268. Also, the GI50 was 12 µM (inactive) with SF-295; > 31.6 µM (inactive) with SK-MEL-28; 24.9 µM (inactive) in the experiment with SN12C; 30.4 µM (inactive) in the experiment with SNB-19; 19.7 µM (inactive) in the experiment with TK-10; > 31.6 µM (inactive) in the experiment on UACC-257. In addition, the GI50 in the experiment on UO-31 is 12.6 µM (inactive).

In the case of `COc1ccc2nc(-c3cccc(N(C)C)c3)cc(O)c2c1`, the GI50 in the experiment on CAKI-1 is 0.327 µM (active); with CCRF-CEM, 0.255 µM (active); in the experiment on HOP-92 it was 0.469 µM (active); with HT-29, 0.198 µM (active); in the experiment on MDA-MB-231, 0.594 µM (active); in the experiment with NCI-H23, 0.111 µM (active). Besides, the GI50 was 0.348 µM (active) in the experiment with NCI-H460; 5.64 µM (inactive) in the experiment with OVCAR-4; 0.541 µM (active) in the experiment on OVCAR-5; 0.362 µM (active) with PC-3; 0.173 µM (active) in the experiment with RXF 393; 0.378 µM (active) in the experiment on SF-268. For the same compound, the GI50 is 0.246 µM (active) in the experiment on SF-295; 0.419 µM (active) with SK-MEL-28; 0.353 µM (active) in the experiment on SN12C; 0.451 µM (active) with SNB-19; 4.74 µM (inactive) with TK-10; 0.485 µM (active) in the experiment with UACC-257. Besides, in the experiment on UO-31, the GI50 is 0.782 µM (active).

Turning to `O=C(NCCCCl)c1c(O)c2ccccc2[nH]c1=O`, the GI50 in the experiment on CAKI-1 was > 100 µM (inactive); in the experiment on CCRF-CEM, > 100 µM (inactive); in the experiment on HOP-92, > 43.3 µM (inactive); with HT-29, > 100 µM (inactive); with MDA-MB-231, > 100 µM (inactive); in the experiment with NCI-H23, > 87.3 µM (inactive). Moreover, the GI50 is > 100 µM (inactive) with NCI-H460; > 100 µM (inactive) in the experiment on OVCAR-4; > 100 µM (inactive) with OVCAR-5; > 100 µM (inactive) in the experiment on PC-3; > 41.3 µM (inactive) with RXF 393; > 72.1 µM (inactive) with SF-268. In addition, the GI50 in the experiment on SF-295 was > 48.9 µM (inactive); in the experiment with SK-MEL-28 it was > 100 µM (inactive); with SN12C, > 100 µM (inactive); in the experiment on SNB-19, > 100 µM (inactive); in the experiment with TK-10 it was > 100 µM (inactive); in the experiment on UACC-257, > 100 µM (inactive). Moreover, in the experiment on UO-31, the GI50 is > 100 µM (inactive).

Turning to `Nc1[nH]c(=S)[nH]c(=O)c1/N=N/c1c(Br)cc(S(N)(=O)=O)cc1Br`, the GI50 in the experiment with CAKI-1, in the experiment with CCRF-CEM, in the experiment with HOP-92, in the experiment with HT-29, with MDA-MB-231 and in the experiment with NCI-H23 was > 100 µM (inactive) throughout. Moreover, the GI50 with NCI-H460, in the experiment with OVCAR-4, with OVCAR-5, in the experiment with PC-3, in the experiment on RXF 393 and with SF-268 was > 100 µM (inactive) each time. Also, the GI50 with SF-295, in the experiment on SK-MEL-28, in the experiment with SN12C, in the experiment with SNB-19, in the experiment on TK-10 and in the experiment with UACC-257 was > 100 µM (inactive) in each case. The GI50 in the experiment with UO-31 is > 100 µM (inactive).
